Literature values in article PMC4642890 (Bioorganic & medicinal chemistry letters, 2015).

Test system: neuropathic pain
Conditions: rodent model

## Tyr^1-DAla^2-Gly^3-Phe^4-Met^5-Pro^6-Leu^7-Trp^8-O-[3’,5’-Bzl(CF3)2] [TY005]
  effect on neuropathic pain: reverse neuropathic pain
  opioid-induced tolerance: no sign of opioid-induce tolerance
  reward liability: no development of reward liability

## Tyr^1-DAla^2-Gly^3-Phe^4-Met^5-Pro^6-Leu^7-Trp^8-NH-[3’,5’-Bzl(CF3)2] [TY027]
  effect on neuropathic pain: reverse neuropathic pain
  opioid-induced tolerance: no sign of opioid-induce tolerance
  reward liability: no development of reward liability
